Results from paper PMC9002265, “A New Series of Strigolactone Analogs Derived From Cinnamic Acids as Germination Inducers for Root Parasitic Plants” (Frontiers in Plant Science, 2022).

Legend:
ShHTL7 [1] = target: T1, ShHTL7 (Striga hermonthica, UniProt A0A0M3PNA2); assay: YLG assay (inhibition of YLG hydrolysis) with recombinant ShHTL7; type: biochemical; settings: 1 h incubation, read-out: IC50 in YLG assay
T1 sequence (A0A0M3PNA2 1-271): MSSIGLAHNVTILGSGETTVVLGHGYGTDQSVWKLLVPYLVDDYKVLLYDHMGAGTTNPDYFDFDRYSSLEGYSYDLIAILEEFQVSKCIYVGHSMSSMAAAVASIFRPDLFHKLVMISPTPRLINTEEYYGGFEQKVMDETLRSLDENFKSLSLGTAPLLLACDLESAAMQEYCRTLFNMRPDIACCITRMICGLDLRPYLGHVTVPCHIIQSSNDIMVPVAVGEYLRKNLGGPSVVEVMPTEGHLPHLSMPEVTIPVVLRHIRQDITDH
Procedure: (§1) The ORF fragment of ShHTL6 and ShHTL7 was synthesized using IDT gBlock service. The PCR amplified ShHTL6 and ShHTL7 fragment was digested with Nco I and EcoR I, and the digested product was introduced into a modified pET28 vector with an N-terminal His8 tag. Escherichia coli BL21(DE3) was used for protein expression. The overnight culture (12 ml) was added to a fresh LB medium (1.2 L) containing kanamycin (50 mg/L) at 37°C. After OD600 reached 0.8, 0.1 mM IPTG was added and the cell was further incubated at 16°C for 21 h. The culture medium was centrifuged at 3700 g and the pellet was stored at −20°C until use. The pellet was resuspended and sonicated in a lysis buffer (50 mM Tris buffer (pH 8.0) containing 500 mM NaCl, 10 mM 2-mercaptoethanol, and 10% glycerol). The supernatant was purified by Ni Sepharose TM 6 Fast Flow (500 μl, Cytiva). After washing with the washing buffer (50 mM Tris buffer (pH 8.0) containing 500 mM NaCl and 20 mM imidazole), The bound protein was eluted with elution buffer (50 mM Tris buffer (pH 8.0) containing 500 mM NaCl and 200 mM imidazole). The eluate was concentrated using VIVASPIN Turbo 15 (Sartorius), and the concentration was adjusted to 5 mg/ml. The purified protein was aliquoted to the appropriate volume, immediately frozen in liquid nitrogen, and stored at −80°C until use.
After YLG was incubated with recombinant ShHTL6 or ShHTL7 for 1 h, the fluorescence was measured by spectraMax i5 (Molecular Devices) at excitation by 480 nm and detection by 520 nm. IC50 values were calculated using the online tool Quest GraphTM IC50 Calculator (AAT Bioquest, Inc., United States; https://www.aatbio.com/tools/ ic50-calculator).

Orobanche minor seeds = assay: Germination assay, Orobanche minor seeds; type: in vivo; settings: O. minor seeds
Procedure: Orobanche minor seeds were washed with 70% EtOH, and then sonicated for 4 min in 1% sodium hypochlorite solution containing 0.2% Tween-20. The seeds were then washed 10 times with sterile water and suspended in 0.1% agar solution. The seeds were loaded onto 5-mm glass fiber filter disks (20–70 seeds/disk) and were conditioned at 23°C for 15 days. Each disk was transferred into a 96-well plate. A 30 μl aliquot of test chemical solution was added to the well. For the germination assay, the chemical solutions were prepared by 1,000 times dilution from each acetone stock solution with water (final acetone concentration was 0.1%). GR24 solution (0.1% acetone) and sterile water (0.1% acetone) was used as positive and negative control, respectively. The 96 well plates were incubated for 5 days at 23°C and the number of total seeds and germinated seeds was counted.

ShHTL7 [2] = target: T1, ShHTL7; assay: Hydrolysis assay with recombinant ShHTL7; type: biochemical; settings: 10 μM substrate, 30°C, 60 min
Procedure: as §1
Hydrolysis assays were carried out at 30°C for 60 min in 100 μl of a reaction buffer containing 0.13 pmol recombinant ShHTL7 or AtD14, 10 μM of substrate in 50 mM Phosphate-Na buffer (pH 7.0) containing 2% acetone. The enzyme reaction was stopped by addition of 100 μl of acetonitrile containing 1-naphtaleneacetic acid (NAA; 0.5 ng/μl) as an internal standard. After centrifuged at 13,000 rpm for 5 min, each sample was subjected to LC–MS/MS analysis equipped with reverse-phase column (CORTECS UPLC Phenyl 1.6 μm, ϕ2.1 × 75 mm; Waters). The concentration of remaining substrate and reaction product was calculated by using NAA as an internal standard. Detailed information about the analytical condition is described in Supplementary Table 1.

[3] = tested on: Arabidopsis wild type Col-0; assay: Growth promoting assay and root phenotypic analysis; type: in vivo; settings: 1 μM on agar plate
Procedure: Sterilized seeds of the Arabidopsis wild type Col-0 were put on the plate containing 1% (w/v) agar-solidified 0.5× Murashige and Skoog (MS) medium, 1% sucrose. Test compounds were dissolved in the medium at 1 μM by 10,000 times dilution from each acetone stock (final concentration of acetone was 0.01% (v/v)). To evaluate the growth promoting effect, these seedlings were cultured horizontally at 22°C for 20 days under LED light (105 μmol/m^2/s) with a 16 h light/8 h dark photoperiod. After the cultivation, flesh weight of shoot was measured. For root phenotypic analysis, these seedlings were cultured verticaly at 22°C for 11 days under LED light (105 μmol/m^2/s) with a 16 h light/8 h dark photoperiod. After the cultivation, root length was measured by using ImageJ software and number of lateral roots was counted by using a microscope.

CC1=CC(OC(=O)/C=C\c2ccccc2)OC1=O (stereo not drawn) [c-CASL1]
IC50 (ShHTL7 [1]): 590 nM
germination-inducing activity, times stronger than the corresponding trans isomer (Orobanche minor seeds): approximately 10 times
hydrolysis by HTL7 (ShHTL7 [2]): can hydrolyze
lateral root density ([3]; 11 days): increased
primary root length ([3]; 11 days): inhibited
shoot fresh weight ([3]; 20 days): increase
